Assays:
Format in all cases: cell-based
[1] = test system: Enterococcus faecium and faecalis (RESISTANT); conditions: geometric mean of 4-6 isolates
Protocol: (§1) The antibacterial efficacy of the present compounds is illustrated by Table II. The minimal inhibitory concentrations (MICs) were determined using a standard broth micro-dilution assay.

[2] = test system: Enterococcus faecium and faecalis (SENSITIVE); conditions: geometric mean of 4-6 isolates
Protocol: as §1

[3] = test system: Staphylococcus aureus 446; assay: MIC, standard broth micro-dilution assay, SA 446
Protocol: as §1

[4] = test system: Staphylococcus aureus 489; assay: MIC, standard broth micro-dilution assay, SA 489
Protocol: as §1

[5] = test system: Staphylococcus aureus 447; assay: MIC, standard broth micro-dilution assay, SA 447
Protocol: as §1

[6] = test system: Staphylococcus haemolyticus 105; assay: MIC, standard broth micro-dilution assay, SH 105
Protocol: as §1

[7] = test system: Staphylococcus haemolyticus 415; assay: MIC, standard broth micro-dilution assay, SH 415
Protocol: as §1

[8] = test system: Staphylococcus epidermidis 270; assay: MIC, standard broth micro-dilution assay, SE 270
Protocol: as §1

[9] = test system: Streptococcus pyogenes C203; assay: MIC, standard broth micro-dilution assay, SPY C203
Protocol: as §1

[10] = test system: Streptococcus pneumoniae P1; assay: MIC, standard broth micro-dilution assay, SPN P1
Protocol: as §1

Compound	Minimal Inhibitory Concentration (MIC) RESISTANT [1]	Minimal Inhibitory Concentration (MIC) SENSITIVE [2]	Minimal Inhibitory Concentration (MIC) SA 446 [3]	Minimal Inhibitory Concentration (MIC) SA 489 [4]	Minimal Inhibitory Concentration (MIC) SA 447 [5]	Minimal Inhibitory Concentration (MIC) SH 105 [6]	Minimal Inhibitory Concentration (MIC) SH 415 [7]	Minimal Inhibitory Concentration (MIC) SE 270 [8]	Minimal Inhibitory Concentration (MIC) SPY C203 [9]	Minimal Inhibitory Concentration (MIC) SPN P1 [10]
CC(C)CC(C(=O)NC1C(=O)NC(CC(N)=O)C(=O)NC2C(=O)NC3C(=O)NC(C(=O)NC(C(=O)O)c4cc(O)cc(O)c4-c4cc3ccc4O)C(OC3CC(C)(N)C(O)C(C)O3)c3ccc(c(Cl)c3)Oc3cc2cc(c3OC2OC(CO)C(O)C(O)C2OC2CC(C)(NCc3ccc(Oc4ccccc4)cc3)C(O)C(C)O2)Oc2ccc(cc2Cl)C1O)N(C)C(=S)Nc1cccc2ccccc12 (stereo not drawn) [Example 7, N^LEU -(1-NAPHTHYLTHIOCARBAMOYL)-N^DISACC -(p-PHENOXYBENZYL)A82846B]	19	3	4	2	1	4	2	0.5	0.25	≤ 0.06
CC(C)CC(C(=O)NC1C(=O)NC(CC(N)=O)C(=O)NC2C(=O)NC3C(=O)NC(C(=O)NC(C(=O)O)c4cc(O)cc(O)c4-c4cc3ccc4O)C(OC3CC(C)(N)C(O)C(C)O3)c3ccc(c(Cl)c3)Oc3cc2cc(c3OC2OC(CO)C(O)C(O)C2OC2CC(C)(NCc3ccc(Cl)cc3)C(O)C(C)O2)Oc2ccc(cc2Cl)C1O)N(C)C(=S)Nc1ccc(Cl)cc1 (stereo not drawn) [Example 12, N^LEU -((p-CHLOROPHENYL)-THIOCARBAMOYL)-N^DISACC -(p-CHLOROBENZYL)A82846B]	128	3.5	4	1	1	2	4	1	≤ 0.06	≤ 0.06
COc1ccc(NC(=S)N(C)C(CC(C)C)C(=O)NC2C(=O)NC(CC(N)=O)C(=O)NC3C(=O)NC4C(=O)NC(C(=O)NC(C(=O)O)c5cc(O)cc(O)c5-c5cc4ccc5O)C(OC4CC(C)(N)C(O)C(C)O4)c4ccc(c(Cl)c4)Oc4cc3cc(c4OC3OC(CO)C(O)C(O)C3OC3CC(C)(NCc4ccc(Cl)cc4)C(O)C(C)O3)Oc3ccc(cc3Cl)C2O)cc1 (stereo not drawn) [Example 13, N^LEU -((p-METHOXYPHENYL)-THIOCARBAMOYL)-N^DISACC -(p-CHLOROBENZYL)A82846B]	> 128	3.5	4	2	2	4	8	2	≤ 0.06	≤ 0.06

— patent US5919771A, “Urea and thiourea derivatives of glycopeptides” (Eli Lilly and Company, priority 1998, dated 1999)
